Reference: US20090105149A1, “Compounds comprising lpa” (ENKAM PHARMACEUTICALS A/S, priority 2003, published 2009)

Experiments:
[1] = test system: organotypic hippocampal neuronal slice cultures (OHSC); assay: OGD, metabolic activity (MTS) in organotypic hippocampal slice cultures; assay type: cell-based, rat
Text: In the present study it was investigated the effect of the FGL peptide on synaptic plasticity, neuronal function and vulnerability following oxygen and glucose deprivation (OGD) in organotypic hippocampal neuronal slice cultures (OHSC) from 7-day-old Wistar rats according to method of Stoppini et al. (1991) Neurosci Methods. 37:173-82 and primary cultures of dissociated hippocampal neurons from 1-day-old rats according to method of Maar et al. (1997) J Neurosci Res. 47:163-72. Primary cell cultures were maintained for 11-12 days and OHSC for 12-14 days prior to adding FGLd.
The primary cell cultures and OHSC were exposed to OGD for 10 and 20 minutes. Following OGD, the cultures were again supplied with oxygen and glucose and analysed at 1, 4 or 24 hour time point after introduction of OGD exposure. FGLd (or the control peptide FGLc) was added 24 hr before, immediately, or 1 hr or 24 hr after OGD. […]
In hippocampal neuronal cultures, FM 1-43 staining was used to evaluate pre-synaptic function (described above). Cell viability in both primary cell cultures and OHSC was measured using the […] [3-(4,5-dimethylthiazol-2-yl)-2,5-diphenyltetrazolium bromide] assay according to Malich et al, (1997) Toxicology. […] In, addition, cell viability in OHSC was measured using propidium iodide (PI) staining according to Laake et al. (1999) Brain Res Brain Res Protoc. […]

[2] = test system: rats treated with (25-35) β-amyloid fragment; assay: Social Recognition test, (25-35) β-amyloid fragment rat model; assay type: in vivo; details: days 7, 10, 13
Description: The results are from the experiment in which the suboccipital administration of 5.0 μg FGL per administration per rat was done at days 7, 10, and 13 after A-β-induced neurotoxicity. […] The number of animals in the groups varied from 4 to 22. The results were analysed using one-way ANOVA (F(2,27)=15.4, P<0.0001) and significance of results was contingent on achieving a p-value of less than 0.05 (**p<0.01), when compared to the A-β/V group (Newman-Keuls post-test). […] FGLcontrol as above.
[…] The number of animals per group varied from 4 to 5. The results were analysed using unpaired t-test and significance of results was contingent on achieving a p-value of less than 0.05 (*p<0.05), when compared to the A-β/N group. […]
The present study employed a rat model, in which neurotoxicity and cognitive impairment were induced by the (25-35) β-amyloid peptide fragment (see Maurice T., et al. (1996) (Brain Res. 706:181-93) and Delobette S., et al. (1997) Eur J Pharmacol. 319:1-4). […] Short-term memory deficit in rats was evaluated using three different behavioural tests: the Social Recognition (Kogan et al, (2000) Hippocampus 10:47-56), Open Field (Cerbone and Sadile, (1994) Neurosci Biobehav Rev. 18:497-518; Vianna et al, (2000) Learn Mem. 7:333-40) and Y-maze (Clayton & Williams, (2000) Neurobiol Learn Mem. 74:135-45) tests. […]

rat pups = assay: Surface Righting Reflex in rat pups; assay type: in vivo; details: intranasal 2.6 μg per pup at PND 1, 2, 3
Description: The number of litters of each treatment group was six. […] FGLcontrol as above.
Dose-Response study. The effect of intranasal administration of 0.026, 0.26 and 2.6 μg FGLd per day at post-natal day (PND) 1, 2 and 3 on performance of the Surface Righting Reflex by rat pups was evaluated.
Sensory Motor Control Development study.

hippocampal neurons = assay: Synapse formation, synaptophysin/GAP-43 double-immunostaining; assay type: cell-based, rat
Description: The effect of FGLd on synapse formation was further evaluated using double-immunostaining of neurites and synapses in primary embryonic (E19) hippocampal neurons grown in culture for 13 days. Cells were incubated with FGLd for 48 or 96 hours, before fixation and immunostaining. The synapses were detected by antibodies against synaptophysin and the neyrites were labelled by antibodies against the growth-associated protein-43 (GAP-43—also called B-50 or F1). The immunostaining was visualised and quantified by confocal fluorescence microscopy as described by Rønn et al. (2000) (op. cit.).

## FGLd: MAP-type dendrimer of FGL; dendrimeric tetramer of the FGL peptide (EVYVVAENQQGKSKA)
[1]; no OGD
  metabolic activity (MTS), treatment alone: led to an increase in metabolic activity
[1]; treated 24 hours prior to OGD, 1 h and 24 h after OGD
  metabolic activity (MTS) after OGD: caused a normalization of the metabolic activity
[2]; Study 1, sub-occipital, tested at day 14
  Social Recognition test: No effect
[2]; Study 2, sub-occipital 5 μg, vs β-amyloid fragment only
  Social Recognition test, time exploring a juvenile rat during the second trial: significantly reduced the increased time spent
Rat pups; PND4, P<0.05
  Surface Righting Reflex test, significance vs control and FGLcontrol groups: statistically significant effect
Rat pups; PND 5, vehicle 3.4
  Surface Righting Reflex performance: 1.3 s
Hippocampal neurons; 20 μg/ml for 48 and 96 hours
  increase in the number of synaptophysin positive spots per 100 μm length of neurite: approximately 20%
Hippocampal neurons; 20 μg/ml for 48 hours, control 2.40
  number of synaptophysin positive spots per 100 μm length of neurite: 2.96
Hippocampal neurons; 20 μg/ml for 96 hours, control 2.73
  number of synaptophysin positive spots per 100 μm length of neurite: 3.24
